The subject of one data set is Vero cells. The following applies: monkey.
The test system of another data set is Herpesvirus 1. The data set is described as follows: in vivo activity against intraperitoneal Herpesvirus 1 challenge in mice. On the set-up: species or system mouse infected with Herpesvirus 1 (strain 123). The following applies: for No. Dead/No. Infected: 7 doses; for GMTD (geometric mean time to death): monitored daily for 21 days. The protocol:
Four-week-old female outbred Swiss mice (CD 1, VAF+, Charles River Labs) were housed 5 per Microisolator® cage. Feed and water were supplied ad libitum. Fifteen mice were randomly assigned to each of the following treatment groups:
2. diluent (0.4% CMC/PBS controls)
3. 100 mg/kg test compound
4. 32 mg/kg test compound
5. 10 mg/kg test compound
6. 3.2 mg/kg test compound
Test compounds were diluted in 0.4% carboxymethylcellulose (CMC) prepared in phosphate buffered saline (PBS) at concentrations consistent with dosing at 0.1 ml per 10 q of body weight. Compounds were administered subcutaneously once daily for a total of 7 doses. Five mice in each treatment group served as uninfected toxicity controls. The remaining ten mice in each group were challenged intraperitoneally with an LD90 dose of the twelfth in vivo passage of Herpesvirus 1 (strain 123). Virus challenge was administered two hours after the first dose of compound was given. Mortality was monitored daily for 21 days. The mortality rates, average day of death, geometric mean time to death and virus rating were calculated for each treatment group.

The next data set deals with HSV-2. Put plainly: plaque reduction, HSV-2 in Vero cells. In kind it is cell-based, Herpes simplex virus type 2. The following applies: Human alphaherpesvirus 2; HSV-2, Vero, plaque reduction 50%; read-out: MIC50. How it is done: (§1) After the adsorption period, the infected cell monolayers were treated in duplicate with serial dilutions of the test compound. Duplicate cell controls containing medium alone and virus controls containing medium and virus were run simultaneously with the test compound. […] Plaques visible to the unaided eye were counted and the mean number of plaques in the duplicate wells for each compound concentration tested and for the untreated, virus infected controls were determined.

The next data set relates to Varicella-Zoster Virus. The data set is described as follows: microbe, parasite or virus in culture. In kind it is cell-based, Varicella-Zoster virus (clinical isolate DM625). The following applies: Human alphaherpesvirus 3, Fibroblast, 120 h.
The test system of the next data set is HSV-1(123). The data set is described as follows: plaque reduction, HSV-1(123) in Vero cells. In kind it is cell-based, Herpes simplex virus type 1. The following applies: Human alphaherpesvirus 1, plaque reduction 50%, read-out: MIC50. The protocol: as §1
A short description of data set [1]: compound cytotoxicity in ATH8 cells (HIV CPE inhibition assay). In kind it is cell-based. The conditions noted are these: human, read-out: MTC. The protocol:
(§2) The ATH8 human T-cell line expresses high levels of the CD4 surface antigen and is quite sensitive to the cytopathogenic effect (CPE) of HIV. The cells were propagated in RPMI 1640 medium supplemented with 4mM glutamine, 15% heat-inactivated fetal bovine serum (Biocell), antibiotics (50 units of penicillin and […] of streptomycin per ml), and 50 units of recombinant-derived human interleukin-2 (ala-125; AMGen Biologicals) per ml.
ATH8 cells were used as the primary target in the HIV induced CPE inhibition assay. Cells were treated with polybrene (2 ug/ml in growth medium) for 30 minutes at 37° C., then collected by gentle centrifugation (40×g for 15 minutes at room temperature) and resuspended in clarified (8000×g for 15 minutes at 4° C.) supernate freshly harvested from 48 hours post passage H9/HTL IIIB cells. Following a 60-minute adsorption period at 37° C., the cells were dispensed into the U-bottom wells of 96-well trays (1×10^4 cells in 0.1 ml per well). […] Test compounds were evaluated at seven half-log dilutions ranging from 100 uq/ml to 0.1 uq/ml. […]
(§3) Between 7 and 10 days post infection, all wells were visually monitored for the degree of CPE inhibition as reflected by cell pellet size, and aliquots were taken from selected wells for determination of cell number and viability (based on trypan blue dye exclusion).

In data set [2] the test system is Human Immunodeficiency Virus (HIV). The data set is described as follows: HIV CPE inhibition assay in ATH8 cells. Type of data set: cell-based. The arrangement: ID50: unit not given beside the values. How it is done: as §2
The clone H9 cell line is another CD4^+ human T-cell line which is permissive for HIV replication but largely resistant to virus induced CPE. H9 cells productively infected with the HTLV IIIB strain of HIV served as the source of infectious virus. These cells were propagated in RPMI 1640 medium supplemented with glutamine and antibiotics as described above, and with 20% heat-inactivated fetal bovine serum. Freshly harvested, undiluted culture supernatant from the H9/HTLV-IIIB producer cells was used for infectious virus inoculum.
The screening of compounds for antiviral activity was performed using a modification of the CPE inhibition assay originally developed by Broder and co workers. This assay is based on the ability of uninfected ATH8 cells to grow and form a pellet at the bottom of a culture tube. Starting about 4 days after HIV addition, infected ATH8 cells begin to die and the pellet starts to break up. By day 10 a clear differential is observable in the size of the cell pellet in uninfected control wells versus infected control wells. The protective effect of test compounds can be assessed by adding them at varying concentrations to the cultured cells at the time of virus infection, then monitoring the status of the cell pellet.
ATH8 cells were used as the primary target in the HIV induced CPE inhibition assay. Cells were treated with polybrene (2 ug/ml in growth medium) for 30 minutes at 37° C., then collected by gentle centrifugation (40×g for 15 minutes at room temperature) and resuspended in clarified (8000×g for 15 minutes at 4° C.) supernate freshly harvested from 48 hours post passage H9/HTL IIIB cells. Following a 60-minute adsorption period at 37° C., the cells were dispensed into the U-bottom wells of 96-well trays (1×10^4 cells in 0.1 ml per well). An equal volume (0.1 ml) of supplemented RPMI 1640 medium containing test compound and twice the normal concentration of interleukin-2 was then added to each well. Test compounds were evaluated at seven half-log dilutions ranging from 100 uq/ml to 0.1 uq/ml. […]
as §3

In brackets after ≈: the same amount, converted by molar mass. Where only a bound is given, the exact number is not on record here.

For `Nc1nc2c(ncn2C2CC(CO)C2CO)c(=O)[nH]1` (stereo not drawn) [Example 1I, 9-(2',3'-Bis(hydroxymethyl)cyclobutyl)guanine], the “MTC (minimum drug concentration causing any cytotoxicity)” value in the data set on Vero cells came to 320 µg/mL. Also, the “VR (virus rating, GMTD of experimental/GMTD of diluent-treated control)” value amounted to 1.3 in the data set on Herpesvirus 1 (3.2 mg/kg s.c.), 1.6 with Herpesvirus 1 (10 mg/kg s.c.) and 2.5 with Herpesvirus 1 (32 mg/kg s.c.). Besides, the figures for the “No. Dead/No. Infected” value with Herpesvirus 1 (3.2 mg/kg s.c. once daily), in the data set on Herpesvirus 1 (10 mg/kg s.c. once daily) and in the data set with Herpesvirus 1 (32 mg/kg s.c. once daily) were 8/10, 5/10 and 0/10, respectively. Further, the “GMTD (geometric mean time to death)” value with Herpesvirus 1 (3.2 mg/kg s.c.) came to 10.8; with Herpesvirus 1 (10 mg/kg s.c.), 13.0; with Herpesvirus 1 (32 mg/kg s.c.), 21.0. Further, the EC50 in the data set with HSV-2 was determined as 1 µg/mL (≈ 3.77 µM); with Varicella-Zoster Virus (VZV plaque formation, human foreskin fibroblasts, read-out: MIC50), 1.4 µg/mL (≈ 5.28 µM); in the data set on HSV-1(123) it was 1 µg/mL (≈ 3.77 µM). Also, the inhibition at 0.1 µg/mL with Varicella-Zoster Virus (VZV, 0.1 ug/ml, read-out: Plaque Reduction) came to 11.5%. The inhibition at 0.32 µg/mL with Varicella-Zoster Virus (VZV, 0.32 ug/ml, read-out: Plaque Reduction) was found to be 18%. Further, in the data set on Varicella-Zoster Virus (VZV, 1.0 ug/ml, read-out: Plaque Reduction), the inhibition at 1 µg/mL stood at 47.1%. In addition, in the data set on Varicella-Zoster Virus (VZV, 3.2 ug/ml, read-out: Plaque Reduction), the inhibition at 3.2 µg/mL stood at 97.7%. In addition, in the data set with Varicella-Zoster Virus (VZV, 10 ug/ml, read-out: Plaque Reduction), the inhibition at 10 µg/mL came out at 100%. Besides, in the data set with Varicella-Zoster Virus (VZV, 32 ug/ml, read-out: Plaque Reduction), the inhibition at 32 µg/mL was determined as 100%. Further, in the data set with Varicella-Zoster Virus (read-out: Plaque Reduction), the inhibition at 100 µg/mL amounted to 100%.

Consider `Nc1ncnc2c1ncn2C1CC(CO)C1CO` (stereo not drawn) [Example 4C, 9-(2',3'-Bis(hydroxymethyl)cyclobutyl)adenine], for which the MCC in data set [1] worked out at 3.2 µg/mL. Also, in data set [2], the ID50 is reported as < 0.1, the TI came to 32 and the VR was found to be 3.5.
